Test [1] concerns the target T1, SARS-CoV-1 MPro (SARS-CoV-1 major protease) (Severe acute respiratory syndrome-related coronavirus, UniProt P0C6X7).
T1 construct: gene rep
Description: biochemical.

The target in test [2] is T2, MERS MPro (MERS-CoV MPro, MERS major protease) (Betacoronavirus England 1, UniProt K9N7C7).
T2 construct: gene rep
Description: biochemical.

Test [3] addresses T3, SARS-CoV-2 MPro (main protease, 3CL protease, Nsp5) (Severe acute respiratory syndrome coronavirus 2, UniProt P0DTD1).
T3 construct: gene rep
Description: biochemical. Set-up: fluorogenic NSP7 peptide substrate cleavage, concentration-response inhibition of MPro.

In test [4] the target is T3, SARS-CoV-2 MPro (main protease, 3CL protease, Nsp5). Set-up: fluorogenic NSP7 peptide substrate cleavage, concentration-response inhibition of MPro. The settings on record: read-out: IC50 [µM] (ACN); compound in acetonitrile; inhibitor.

Read-outs that look alike come from different tables or passages of the source.

Usually IC50 stands for the concentration that gives 50% inhibition.

T2 sequence (K9N7C7 3248-3553 limits assumed): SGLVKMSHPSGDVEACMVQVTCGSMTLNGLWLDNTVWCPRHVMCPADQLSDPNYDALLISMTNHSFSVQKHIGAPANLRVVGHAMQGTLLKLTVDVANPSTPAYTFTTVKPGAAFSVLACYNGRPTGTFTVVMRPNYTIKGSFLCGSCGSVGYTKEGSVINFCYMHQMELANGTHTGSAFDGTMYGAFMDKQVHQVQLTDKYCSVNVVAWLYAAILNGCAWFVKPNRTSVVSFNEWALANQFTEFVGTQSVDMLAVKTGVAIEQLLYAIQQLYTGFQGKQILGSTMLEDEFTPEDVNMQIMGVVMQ

With `O=Cc1ncc(Br)cc1OCc1ccc(Cl)c([N+](=O)[O-])c1` ['7021], the IC50 in test [1] is 8 µM; in test [2], 50 µM.

`COc1cc(C=O)c(OS(=O)(=O)CC2CCCCC2)cc1OC` [ZINC271072260] registered an IC50 in test [3] of 115 µM. Still for that read-out and setting: the same measure for `Cc1noc(C)c1CCCNc1nc(-c2ccncc2)nc2ccccc12` [ZINC301553312]: 122 µM. Take `CC1CN(c2ncnc3sc4ccccc4c23)CC(=O)N1C` (stereo not shown) [ZINC336912805]: the half-maximal inhibitory concentration (IC50) worked out at 250 µM in test [3] (read-out: IC50 [µM] (DMSO), compound in DMSO, inhibitor) and 177 µM in test [4]. Molecule `COC(=O)c1cc(C#N)c(=O)n(Cc2cccc(F)c2Cl)c1` [ZINC338540162] registered an IC50 in test [3] of 281 µM.

Turning to `O=C(Cc1cccnc1)N(Cc1ccccn1)c1ccc(Cl)cc1` [ZINC346371112], in test [3], the IC50 came to 214 µM. Turning to `O=c1cc(CN2CC(CO)c3ccccc32)nc2ccccn12` (stereo not shown) [ZINC433294115], the IC50 in test [3] came out at 97 µM. The molecule `CC1CN(C(=O)CCn2cc(Br)ccc2=O)Cc2ccccc2O1` (stereo not shown) [ZINC553840273] yielded a half-maximal inhibitory concentration (IC50) in test [3] of 200 µM.
